Data from PMC7391080 (2020).
“And” between values parts separate entries of the source, which are not always exact repeats. Equal entries are not always repeated.

Test system: Sap9
Test: 6 ng/μL Sap9 in 2 mM sodium phosphate buffer
Details: 37 °C, up to 3 h

DSHAKRHHGYKRKFHEKHHSHRGY
fragment found: 6–24, major and 7–24, major and 13–24, major and 14–24, major
